How the values were obtained:
[1] = molecular target: T1, PD-1/PD-L1 binding (Homo sapiens, UniProt Q9NZQ7); assay: HTRF inhibition of PD-1/PD-L1 binding in vitro; conditions: His-PD-1 100 nM, PD-L1-Fc 2 nM, read-out: IC50 inhibiting PD-1/PD-L1 binding in vitro
T1 construct: purchased Sino Biological Inc. 10084-H02H-100 (PD-L1-Fc); 10377-H08H-50 (His-PD-1)
Text: Homogeneous Time-Resolved Fluorescence (HTRF): This method used the recombinant human PD-L1 protein fused to express the hFc tag and the recombinant human PD-1 protein fused to express the His tag, both of which were interacting ligands and receptors. When the anti-hFc antibody containing Eu element chelation marker and the anti-His antibody labeled with XL665 fluorescein were bound with the above two corresponding labels, and excited by a laser with a wavelength of 320 nm, the ligand-receptor binding enabled the energy to be transferred from the Eu element to the XL665 fluorescein, which was excited to emit light at a wavelength of 665 nm. However, when an inhibitor of the interaction between PD-L1 and PD-1 was added, the binding of the ligand to the receptor was destroyed, so that the distance between Eu and XL665 was far away, the energy cannot be transferred, and XL665 would not be excited.
(§1) Recombinant human PD-1 protein with His tag (His-PD-1 protein, Cat #: 10377-H08H-50), and recombinant human PD-L1-Fc fusion protein (PD-L1-Fc fusion protein, Cat #: 10084-H02H-100) were purchased from Sino Biological Inc., anti-hFc-Eu^+ antibody and anti-His-XL665 antibody were purchased from Cisbio Company, and other related reagents such as dilution buffer (Diluent buffer 5, Cat #: 62DL5DDC), detection buffer (PPI-Europium detection buffer, Cat #: 61DB9RDF) were purchased from Cisbio Company. Fluorescence detection instrument Tecan (Spark 10 M) was purchased from Switzerland Tecan Company.
(§2) (1) Experimental preparation: The test compound was diluted with dilution buffer into different concentration gradients (the highest final concentration in 20 μL final reaction system was 10 μM), His-PD-1 protein was diluted to 800 nM (the final concentration in 20 μL final reaction system was 100 nM), and the PD-L1-Fc fusion protein was diluted to 16 nM (final concentration was 2 nM). The anti-His-XL665 antibody and anti-hFc-Eu^3+ antibody were respectively diluted 20 times and 100 times using the detection buffer according to the reagent requirements.
(§3) (2) 5 μL of test compound, 2.5 μL of PD-L1-Fc fusion protein and 2.5 μL of His-PD-1 protein solution were mixed, and incubated at room temperature for 15 min. Then the system was added with 5 μL of anti-His-XL665 antibody and 5 μL of anti-hFc-Eu^3+ antibody, incubated for another 3 h, and then detected.
(3) When detecting the reaction, a control group was also provided, including a 0% inhibition positive control without adding test compounds and a 100% inhibition negative control without adding PD-1 protein. All detections were performed with duplicates.
(§4) (4) The fluorescence signal of each well was measured using a fluorescence detector Tecan (Spark 10M) at an excitation wavelength of 320 nm, and emission wavelengths of 620 nm and 665 nm, respectively. The intensity of the mutual binding of PD-1 and PD-L1 referred to the ratio of fluorescence signals Em665/Em620.
(§5) (5) The binding inhibition rate of the test compound was calculated as follows: Inhibition rate (%)=[1−(Fluorescence signal ratio of detection well-fluorescence signal ratio of 100% inhibition negative control)]/(fluorescence signal ratio of 0% inhibition positive control-fluorescence signal ratio of 100% inhibition negative control)×100%. After calculating the inhibition rate on PD-1/PD-L1 binding of the test compounds with different concentration gradients, the 50% inhibitory concentration (IC50) was calculated.

[2] = molecular target: T2, CD80/PD-L1 binding (Homo sapiens, UniProt Q9NZQ7); assay: HTRF inhibition of CD80/PD-L1 binding in vitro; conditions: His-CD80 100 nM, PD-L1-Fc 2 nM, read-out: IC50 inhibiting CD80/PD-L1 binding in vitro
T2 construct: purchased Sino Biological Inc. 10084-H02H-100 (PD-L1-Fc); 10698-H08H-100 (His-CD80)
T2 sequence (Q9NZQ7 19-239 limits assumed): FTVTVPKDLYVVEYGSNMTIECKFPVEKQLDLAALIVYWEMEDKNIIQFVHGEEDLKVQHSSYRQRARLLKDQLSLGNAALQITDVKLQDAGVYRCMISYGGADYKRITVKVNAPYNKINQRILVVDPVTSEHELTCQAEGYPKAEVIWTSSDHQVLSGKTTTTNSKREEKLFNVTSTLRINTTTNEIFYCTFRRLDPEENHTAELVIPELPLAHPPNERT
Text: In addition to PD-1, PD-L1 can also exert immunosuppressive activity by binding to CD80. Similarly, in vitro experiments of binding or binding inhibition of CD80 and PD-L1 can also be measured by homogeneous time-resolved fluorescence (HTRF). When the anti-hFc-Eu^3+ antibody and anti-His-XL665 antibody were bound to the hFC tag fused to PD-L1 and the His tag fused to CD80 respectively, and excited with a 320 nm wavelength laser, the binding of PD-L1 and CD80 enabled energy to be transferred from the Eu element to the XL665 fluorescein, which was excited to emit light. When the inhibitor of the interaction between PD-L1 and CD80 was added, the combination of the two was destroyed, so that the distance between Eu and XL665 was far away, the energy cannot be transferred, and XL665 would not be excited.
as §1, with “CD80” for “PD-1”, “(His-CD80” for “(His-PD-1”, “10698-H08H-100),” for “10377-H08H-50),”, “anti-hFc-Eu^3+” for “anti-hFc-Eu^+”
as §2, with “His-CD80” for “His-PD-1”
as §3, with “Hid-CD80” for “PD-L1-Fc fusion”, “[…]” for “His-PD-1”
(3) When detecting the reaction, a control group was provided, including a 0% inhibition positive control without adding test compounds and a 100% inhibition negative control without adding CD-80 protein. All detections were performed with duplicates.
as §4, with “CD80” for “PD-1”
as §5, with “CD80/PD-L1” for “PD-1/PD-L1”

T1 sequence (Q9NZQ7 19-239 limits assumed): as above

Compound	IC50 [1]	IC50 [2]
[2H]c1c([2H])c(NC(=O)c2nc3c(n2C([2H])([2H])[2H])CCN(CCC24CCC(COC([2H])([2H])[2H])(CC2)C4)C3)c(Cl)c(-c2c([2H])c([2H])c([2H])c(NC(=O)c3nc4c(n3C([2H])([2H])[2H])CCN(CCC35CCC(C(=O)O)(CC3)C5)C4)c2Cl)c1[2H] [Compound I-13, 4-(2-(2-((2,2′-dichloro-3′-(5-(2-(4-((methoxy-d3)methyl)bicyclo[2.2.1]heptane-1-yl)ethyl)-1-(methyl-d3)-4,5,6,7-tetrahydro-1H-imidazo[4,5-c]pyridine-2-carboxamido)-[1,1′-biphenyl]-3-yl-4,4′, 5,5′,6,6′-d6)carbamoyl)-1-(methyl-d3)-1,4,6,7-tetrahydro-5H-imidazo[4,5-c]pyridin-5-yl)ethyl)bicyclo[2.2.1]heptane-1-carboxylic acid]	1.23 nM	1.44 nM
[2H]C([2H])([2H])OCC12CCC(CCN3CCc4c(nc(C(=O)Nc5cccc(-c6cccc(NC(=O)c7nc8c(n7C)CCN(CCC79CCC(C(=O)O)(CC7)C9)C8)c6Cl)c5F)n4C)C3)(CC1)C2 (single isomer, unassigned) [Compound I-2, 4-(2-(2-((2-chloro-2′-fluoro-3′-(5-(2-(4-((methoxy-d3)methyl)bicyclo[2.2.1]heptane-1-y 1)ethyl)-1-methyl-4,5,6,7-tetrahydro-1H-imidazo[4,5-c]pyridine-2-carboxamido)-[1,1′-biphenyl]-3-yl)carbamoyl)-1-methyl-1,4,6,7-tetrahydro-5H-imidazo[4,5-c]pyridin-5-yl)ethyl)bicyclo[2.2.1]heptane-1-carboxylic acid]	1.52 nM	1.09 nM
[2H]c1c([2H])c(NC(=O)c2nc3c(n2C)CCN(CCC24CCC(COC([2H])([2H])[2H])(CC2)C4)C3)c(F)c(-c2c([2H])c([2H])c([2H])c(NC(=O)c3nc4c(n3C)CCN(CCC35CCC(C(=O)O)(CC3)C5)C4)c2Cl)c1[2H] (single isomer, unassigned) [Compound I-14, 4-(2-(2-((2-chloro-2′-fluoro-3′-(5-(2-(4-((methoxy-d3)methyl)bicyclo[2.2.1]heptane-1-y 1)ethyl)-1-methyl-4,5,6,7-tetrahydro-1H-imidazo[4,5-c]pyridine-2-carboxamido)-[1,1′-biphenyl]-3-yl-4,4′,5,5′,6,6′-d6)carbamoyl)-1-methyl-1,4,6,7-tetrahydro-5H-imidazo[4,5-c]pyridin-5-yl)ethyl)bicyclo[2.2.1]heptane-1-carboxylic acid]	0.51 nM	0.37 nM

Continued by falling IC50 [1], values first:

IC50 [1]	IC50 [2]	Compound
4.21 nM	3.21 nM	[2H]C([2H])([2H])OCC12CCC(CCN3CCc4c(nc(C(=O)Nc5cccc(-c6cccc(NC(=O)c7nc8c(n7C([2H])([2H])[2H])CCN(CCC79CCC(C(=O)O)(CC7)C9)C8)c6C)c5Cl)n4C([2H])([2H])[2H])C3)(CC1)C2 [Compound I-11, 4-(2-(2-((2′-chloro-3′-(5-(2-(4-((methoxy-d3)methyl)bicyclo[2.2.1]heptane-1-yl)ethyl)-1-(methyl-d3)-4,5,6,7-tetrahydro-1H-imidazo[4,5-c]pyridine-2-carboxamido)-2-methyl-[1,1′-biphenyl]-3-yl)carbamoyl)-1-(methyl-d3)-1,4,6,7-tetrahydro-5H-imidazo[4,5-c]pyridin-5-yl)ethyl)bicyclo[2.2.1]heptane-1-carboxylic acid]
2.9 nM	1.78 nM	[2H]C([2H])([2H])OCC12CCC(CCN3CCc4c(nc(C(=O)Nc5cccc(-c6cccc(NC(=O)c7nc8c(n7C)CCN(CCC79CCC(C(=O)O)(CC7)C9)C8)c6C)c5Cl)n4C)C3)(CC1)C2 [Compound I-3, 4-(2-(2-((2′-chloro-3′-(5-(2-(4-((methoxy-d3)methyl)bicyclo[2.2.1]heptane-1-yl)ethyl)-1-methyl-4,5,6,7-tetrahydro-1H-imidazo[4,5-c]pyridine-2-carboxamido)-2-methyl-[1,1′-biphenyl]-3-yl)carbamoyl)-1-methyl-1,4,6,7-tetrahydro-5H-imidazo[4,5-c]pyridin-5-yl)ethyl)bicyclo[2.2.1]heptane-1-carboxylic acid]
1.02 nM	1.12 nM	[2H]C([2H])([2H])OCC12CCC(CCN3CCc4c(nc(C(=O)Nc5cccc(-c6cccc(NC(=O)c7nc8c(n7C([2H])([2H])[2H])CCN(CCC79CCC(C(=O)O)(CC7)C9)C8)c6Cl)c5Cl)n4C([2H])([2H])[2H])C3)(CC1)C2 [Compound I-5, 4-(2-(2-((2,2′-dichloro-3′-(5-(2-(4-((methoxy-d3)methyl)bicyclo[2.2.1]heptane-1-yl)ethyl)-1-(methyl-d3)-4,5,6,7-tetrahydro-1H-imidazo[4,5-c]pyridine-2-carboxamido)-[1,1′-biphenyl]-3-yl)carbamoyl)-1-(methyl-d3)-1,4,6,7-tetrahydro-5H-imidazo[4,5-c]pyridin-5-yl)ethyl)bicyclo[2.2.1]heptane-1-carboxylic acid]

— US20260234164A1, “BIPHENYL COMPOUND AS IMMUNOMODULATOR, PREPARATION METHOD THEREFOR AND USE THEREOF” (SHENZHEN CHIPSCREEN BIOSCIENCES CO., LTD., priority 2021, published 2026)
